What was measured:
Electro-convulsion = experiment: Maximal electroconvulsion test; format: in vivo; conditions: Mus musculus, po; i.g., mice
Water solubility = format: physicochemical; conditions: dihydrochloride
Text: Using a solution of HCl-gas in ethanol the compound can be converted to dihydrochloride, which is 4% water soluble.

[1] = tested on: peripheral leukocytes and lymphocytes; conditions: conventional cytostatics and immunosuppressive agents; cited from earlier work

Row | SMILES | reattainment of normal hematological findings after discontinuation [1] | also measured
1 | O=C1NC(=O)C(c2ccccc2)(c2ccccc2)N1 [Diphenylhydantoin, reference compound] | – | ED50 (Electro-convulsion): 22.5 mg/kg
2 | Cl.Cl.Nc1ccc(C(=O)Nc2ccccc2N)cc1 [dihydrochloride, 4-Amino-N-(2'aminophenyl)-benzamide-dihydrochloride] | – | solubility (Water solubility): 40 mg/mL
3 | O=P1(N(CCCl)CCCl)NCCCO1 (centres unmarked) [cyclophosphamide] | No comparable short-term extensive reattainment of normal hematological findings | –
4 | CN(Cc1cnc2nc(N)nc(N)c2n1)c1ccc(C(=O)N[C@@H](CCC(=O)O)C(=O)O)cc1 [methotrexate] | No comparable short-term extensive reattainment of normal hematological findings | –
5 | Cn1cnc([N+](=O)[O-])c1Sc1ncnc2nc[nH]c12 [Azathioprine] | No comparable short-term extensive reattainment of normal hematological findings | –
